Data reported in US8647845B2, “Method for producing sugar” (Asahi Group Holdings, Ltd., priority 2008, dated 2014).

Biological target: T1, sucrase (Saccharomyces cerevisiae, UniProt P00724)
T1 construct: S. cervisiae (Taiken 396 strain) which is a general yeast having sucrase; endogenous in cells; host or cells: Saccharomyces cerevisiae Taiken 396 strain (live yeast in sugarcane-pressed juice)
T1 sequence (P00724 20-532): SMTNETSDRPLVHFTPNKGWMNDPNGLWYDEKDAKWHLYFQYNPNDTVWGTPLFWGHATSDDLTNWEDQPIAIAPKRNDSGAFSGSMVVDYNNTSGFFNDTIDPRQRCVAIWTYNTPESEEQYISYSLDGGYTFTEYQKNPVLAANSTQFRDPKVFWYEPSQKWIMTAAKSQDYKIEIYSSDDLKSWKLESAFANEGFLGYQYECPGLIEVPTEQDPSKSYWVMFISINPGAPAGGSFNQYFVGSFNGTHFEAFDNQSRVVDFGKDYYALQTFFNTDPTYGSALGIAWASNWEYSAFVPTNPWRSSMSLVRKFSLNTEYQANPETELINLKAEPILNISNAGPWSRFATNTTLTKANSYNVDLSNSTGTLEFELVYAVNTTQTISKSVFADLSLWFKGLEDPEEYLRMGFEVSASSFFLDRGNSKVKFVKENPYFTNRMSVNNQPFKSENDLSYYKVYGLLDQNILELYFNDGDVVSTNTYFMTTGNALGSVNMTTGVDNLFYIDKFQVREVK
Test: Fermentation test on sugarcane-pressed juice using sucrase inhibitor
Type: cell-based, S. cervisiae (Taiken 396 strain)
Conditions: 60 mM inhibitor
Method: S. cervisiae ([…] 396 strain) which is a general yeast having sucrase was planted in a sugarcane-pressed juice. Methyl-α-D-glucopyranoside serving as a sucrase inhibitor was added thereto at a concentration 60 mM. A fermentation test was conducted to examine the changes in the concentrations of sucrose, invert sugars, and ethanol over time. The fungal strain used for fermentation had been pre-precultured by shaking in 10 mL of a YM medium at 30° C. for 24 hours, and then further precultured by shaking in 500 mL of a YPD medium at 30° C. for 12 hours. The yeast was collected from the precultured medium by centrifugation. 100 mL of the pressed juice (in the pressed juice, the sucrose concentration was 10.0%, and the invert sugar concentration was 3.0%) and 60 mM of methyl-α-D-glucopyranoside were placed in a 300-mL Erlenmeyer flask with a fermentation lock. The yeast collected from the precultured medium by centrifugation was added into the flask for fermentation. The fermentation was carried out by shaking at 30° C. at 120 rpm.

[1] = 6 hours after the fermentation was started

CO[C@H]1O[C@H](CO)[C@@H](O)[C@H](O)[C@H]1O [methyl-α-D-glucopyranoside]
invert sugars converted into ethanol [1]: all the invert sugars were converted into ethanol
sucrose remaining [1]: approximately half of the sucrose remained
sucrose ratio of the fermented liquid (8 hours after the fermentation was started): 94.0%
sucrose decomposition speed (sugarcane-pressed juice (sucrose 10.0%, invert sugar 3.0%), 30° C., compared with no inhibitor): made slow
